In patent publication US20100042137A1, “ACUPUNCTURE AND ACUPRESSURE THERAPIES” (priority 2008, published 2010):
Read-outs that look alike come from different tables or passages of the source.

Tests used:
human patients [1] = test system: human patients
From the text: (i) 10/10 pain from sacroilitis.
(ii) 5/10 pain from trochanteric bursitis.
(iii) 7/10 pain from Morton's neuroma.
(iv) 5/10 pain from lateral epicondylitis.

human patients [2] = test system: human patients; remark: listed apart in the source
[3] = test system: Patients with Multiple Indications; assay: Treatment of patients with multiple indications by injection; pain level x/10; format: in vivo, human; conditions: for Pain level After: 2 cc injected
[4] = test system: Patients with Back, Shoulder, Leg Pain; assay: Treatment of patients with back, shoulder, leg pain by injection; pain level x/10; format: in vivo, human
From the text: (iv) A patient presented initially with 9/10 mechanical low back pain.
(v) A patient with an L5 radiculopathy complained of a 6/10 low back pain which was unrelieved by trigger point injections, sacroiliac injections and epidurals.
(vii) A patient presented with a 8/10 back pain from lumbar facet arthropathy.
(viii) A patient presented with an 8/10 back pain with radiation down leg from lumbar radiculopathy.
(xii) A patient presented with a 9/10 low back pain and 8/10 shoulder and neck pain.
(ii) A patient presented with a 4/10 pain due to sacroiliac strain.
(ii) A patient presented with a 4/10 neck pain from cervical degenerative disc disease.
(iii) A patient presented with a 9/10 pain globally from cervical spondylotic myelopathy.

human patients [5] = assay: Treatment with epinephrine or Restylane at specific influential points, also in combination with magnets; pain level x/10; format: in vivo
From the text: (i) A patient presented with a 6/10 left ankle pain from gout.
(ii) A patient presented with an 8/10 pain and stiffness from Parkinson's disease.
(iii) A patient presented with a 5/10 neck pain and stiffness.
(iv) A patient presented with a 5/10 neck and upper back pain from syringomyelia.
(v) A patient presented with a 5.8/10 right shoulder pain from rotator cuff tendinopathy.
(vi) A patient presented with a 2/10 shoulder pain from a rotator cuff tendinopathy.
(vii) A patient presented with a 10/10 frontal sinus headache which was present for over 1 week.
(viii) A patient presented with a 4/10 tension headache over the temples and neck with photophobia on which is present 2-3 times a week on average.
(ix) A patient presented with 10/10 pain from bilateral tarsal tunnel syndrome.
(x) A patient with chronic radicular left leg pain 6/10.
(i) A patient presented with a 5/10 pain globally especially in the low back.
(ii) A patient presented with a 5/10 pain in the mid back who had never had acupuncture before.
(iii) A patient presented with a 10/10 pain in an amputee with a compound fracture of their femur.
(i) A patient presented with common peroneal neuropathy with a pain level of 9/10.
(ii) Patient with 9/10 back pain from sacroilitis.

human patients [6] = assay: Treatments with saline; pain level x/10; format: in vivo; conditions: general observation in parenthesis
From the text: (i) A patient presented with a 2/10 rotator cuff tendinopathy.
(ii) 5/10 sacroiliac strain.
(iv) A patient presented with a 6/10 pain globally from severe systemic lupus erthymatosis (SLE).
(v) A patient presented with a 7/10 pain right medial knee pain from pes anserine bursitis.

Patients with Arthritis = assay: Treatment of patients with arthritis by injection at or near acupuncture points; pain level x/10; format: in vivo, human
From the text: Treatment of Patients with Arthritis
(i) A patient presented with a 5/10 pain from severe rheumatoid arthritis.
(ii) A patient presented with an 8/10 pain from severe rheumatoid arthritis.
(iii) A patient presented with 8/10 pain from severe rheumatoid arthritis with diffuse joint stiffness, swelling and tenderness.
(i) A patient presented with a pain level of 10/10 from cervical strain due to seronegative rheumatoid arthritis.
(ii) A patient presented with a 7.5/10 pain globally from a seronegative arthritis (unspecified).
A patient presented with a 5/10 pain from bilateral post-traumatic subtalar arthritis.

Question: CCN(CC)CC(=O)Nc1c(C)cccc1C [lidocaine] was tested. Which pain after injection (human patients [1]; 5/10 pain from lateral epicondylitis, 0.1 cc 2% lidocaine s.c. over lateral epicondyle) did it give?
Answer: complete pain relief

Question: And the pain after injection (human patients [1]; 5/10 pain from trochanteric bursitis, 0.1 cc 2% lidocaine bilaterally s.c. over trochanteric bursae)?
Answer: complete pain resolution

Question: And the symptoms after injection (human patients [1]; 7/10 pain from Morton's neuroma, 0.1 cc 2% lidocaine s.c. on dorsal foot between metatarsal heads)?
Answer: complete resolution of symptoms

Question: And the pain after injection (human patients [1]; 10/10 pain from sacroilitis, 0.1 cc 2% lidocaine s.c. over the sacroiliac joints)?
Answer: immediate pain cessation and return to full mobility

Question: What about the “duration of complete pain relief” value (human patients [1]; same patient) of the same compound?
Answer: 1 days

Question: What about the “duration of complete pain resolution” value (human patients [1]; same patient) of the same compound?
Answer: 3 weeks

Question: And the “duration of complete resolution of symptoms” value (human patients [1]; same patient)?
Answer: 2 weeks

Question: And the “pain relief still complete at time later” value (human patients [1]; same patient, magnets put over the two injection sites afterwards)?
Answer: ≥ 10 days

Question: What about the drooling after injection (human patients [2]; excessive drooling (sialorrhea), 0.1 cc lidocaine 2% near Li 4) of the same compound?
Answer: cessation of drooling

Question: And the effect on sleepiness (human patients [2]; narcolepsy, falling asleep in the office, 0.1 cc 2% lidocaine near Li 4)?
Answer: noticeably woke patient up

Question: What about the “duration of cessation of drooling” value (human patients [2]; same patient) of the same compound?
Answer: 2 weeks

Question: What about the duration of effect (human patients [2]; same patient) of the same compound?
Answer: lasted throughout the day

Question: What about the “shoulder pain level after injection” value ([3]; 6/10 bilateral shoulder pain, glenohumeral arthritis, 4 ccs into GH joints bilaterally) of the same compound?
Answer: 1/10

Question: And the pain relief ([3]; 6/10 shoulder pain (bilateral rotator cuff tendinopathy) and 6/10 low back pain (lumbar spinal stenosis), 2 cc bilaterally into GH joints)?
Answer: about 50%

Question: And the “pain level after injection, right side of the body” value ([3]; 10/10 post surgical pain from tracheostomy and 6/10 coccygodynia, 2 cc s.c. bilaterally over GH joint)?
Answer: 2/10

Question: What about the “Pain level After” value ([3]; Cervical spondylotic myelopathy, Before 9/10) of the same compound?
Answer: 1/10

Question: And the “Pain level After” value ([3]; Chronic pelvic pain of non menstrual origin, Before 6/10)?
Answer: 0

Question: And the “Pain level After” value ([3]; Dermatomyositis, Before 6/10)?
Answer: 2/10

Question: What about the “Pain level After” value ([3]; Knee pain, Before 5/10) of the same compound?
Answer: 0

Question: What about the “Pain level After” value ([3]; Lumbar radiculopathy, herniated disk and scatia, Before 8/10) of the same compound?
Answer: 0

Question: What about the “Pain level After” value ([3]; Multiple Sclerois with pain in legs, Before 7/10) of the same compound?
Answer: 0

Question: And the “Pain level After” value ([3]; Peptic Ulcer with gnawing epigastric pain, Before 8/10)?
Answer: 0

Question: What about the “Pain level After” value ([3]; Plantar Fasciitis, Before 6/10) of the same compound?
Answer: 0

Question: And the “Pain level After” value ([3]; Reflex sympathetic dystophy, Before 6/10)?
Answer: 0

Question: And the “other effects reported by patient” value ([3]; same patient)?
Answer: felt more awake, had a better mood, and could breathe easier

Question: And the “pain level after injection” value ([3]; same patient as E44, 6/10 before)?
Answer: 3/10

Question: What about the “low back pain level after injection” value ([3]; same patient, 6/10 low back pain, lumbar spinal stenosis, 4 ccs) of the same compound?
Answer: 2/10

Question: What about the “pain after further injection” value ([3]; same patient, another 2 cc over only the left GH joint) of the same compound?
Answer: disappearance of all pain

Question: What about the “pain level after injection” value ([4]; 4/10 neck pain from cervical degenerative disc disease, 2 cc bilaterally s.c. over GH joints) of the same compound?
Answer: 2/10

Question: And the pain after injection ([4]; 4/10 pain due to sacroiliac strain, 2 cc bilaterally s.c. over GH joints)?
Answer: disappearance of all pain

Question: And the pain after injection ([4]; 5/10 back pain due to rupture of the annulus, 2 cc 1% lidocaine into GH joints bilaterally)?
Answer: no relief

Question: What about the “pain level after injection” value ([4]; 6/10 mechanical low back pain before, 2 cc bilaterally into GH joints) of the same compound?
Answer: about 3/10

Question: And the pain relief ([4]; 6/10 mechanical low back pain, 2 cc bilaterally into GH joints)?
Answer: about 50%

Question: And the “pain level after injection” value ([4]; 7/10 low back pain due to SI strain before, 2 cc into GH joints bilaterally)?
Answer: 4/10

Question: What about the “pain level after injection” value ([4]; 8/10 back pain with radiation down leg, lumbar radiculopathy, 2 cc bilaterally s.c. over GH joints) of the same compound?
Answer: 1/10

Question: What about the “pain level after injection” value ([4]; 9/10 mechanical low back pain before, 2 cc bilaterally into GH joints, agent not given, heading: Injection of Lidocaine) of the same compound?
Answer: 4/10

Question: What about the pain after injection ([4]; lumbar facet arthropathy, s.c. over GH joints bilaterally) of the same compound?
Answer: resolution of pain

Question: What about the “follow-up of pain relief” value ([4]; same patient as E28) of the same compound?
Answer: still pain free one week later

Question: And the “other effects stated by patient” value ([4]; same patient as E34)?
Answer: felt more awake, alert and had a sense of well-being

Question: And the pain after injection (human patients [5]; 9/10 back pain from sacroilitis, 0.1 cc lidocaine 2% bilaterally s.c. over sacroiliac joints (B 47, B 23))?
Answer: disappearance of all back pain

Question: What about the “pain after therapeutic magnets put over the sites of injection” value (human patients [5]; same patient) of the same compound?
Answer: again disappeared

Question: And the “time after which the pain started to come back” value (human patients [5]; same patient)?
Answer: 2 days

Question: What about the “effect of unilateral injection over the GH joint” value (human patients [6]) of the same compound?
Answer: seems to provide analgesia on the opposite side of the body

Question: And the pain after injection (Patients with Arthritis; 6/10 shoulder pain (glenohumeral arthritis) and 7/10 low back pain (lumbar stenosis), 2 cc into GH joints bilaterally)?
Answer: complete pain relief

Question: And the pain after injection (Patients with Arthritis; 9/10 elbow pain (radiohumeral arthritis) and 10/10 mechanical low back pain, 2 cc into GH joints near Lu 1 bilaterally)?
Answer: complete relief

Question: And the pain after injection (Patients with Arthritis; bilateral post-traumatic subtalar arthritis, 5/10 before, 2 cc bilaterally s.c. over GH joints near Lu 1)?
Answer: disappearance of all pain

Question: And the “pain level after injection” value (Patients with Arthritis; cervical strain due to seronegative rheumatoid arthritis, 10/10 before, 1 cc bilaterally s.c. over GH joints)?
Answer: 4/10

Question: And the pain after injection (Patients with Arthritis; right glenohumeral osteoarthritis 9/10 and 8/10 low back pain (sacroiliac strain), 2 ccs bilaterally into GH joints, agent not given, heading: Injection of Lidocaine)?
Answer: total relief

Question: And the “duration of pain relief” value (Patients with Arthritis; same patient as E13)?
Answer: 3 days

Question: And the “duration of pain relief” value (Patients with Arthritis; same patient as E15)?
Answer: 1 week

Question: And the “pain level after injection” value (Patients with Arthritis; same patient, 4/10 before, another 2 cc lidocaine bilaterally s.c. over GH joints)?
Answer: 3/10

Question: What about the pain after injection (Patients with Arthritis; seronegative arthritis (unspecified), 7.5/10 globally before, 2 cc bilaterally s.c. over GH joints) of the same compound?
Answer: disappearance of all pain

Question: And the pain after injection (Patients with Arthritis; severe RA, s.c. over GH joints bilaterally)?
Answer: resolution of all pain

Question: And the pain after injection (Patients with Arthritis; severe rheumatoid arthritis, 5/10 before, 2 cc bilaterally s.c. over glenohumeral (GH) joints near Lu 1)?
Answer: disappearance of all pain and return of mobility

Question: With C[C@]12C=CC(=O)C=C1CC[C@H]1[C@@H]3C[C@@H](O)[C@](O)(C(=O)CO)[C@@]3(C)C[C@H](O)[C@@]12F [triamcinolone] as the compound, how does the pain after injection ([3]; cervical stenosis 8/10 and lumbosacral strain 7/10, triamcinolone only into GH joints bilaterally) read?
Answer: complete relief
